ChEMBL document CHEMBL4673259, “Discovery of isoquinolinone and naphthyridinone-based inhibitors of poly(ADP-ribose) polymerase-1 (PARP1) as anticancer agents: Structure activity relationship and preclinical characterization” (Bioorg Med Chem, 2020)

Assays:
[1] = target: Poly [ADP-ribose] polymerase 2 (Homo sapiens, UniProt Q9UGN5); test: Inhibition of N-terminal GST-tagged human PARP2 (2 to 583 residues) expressed in baculovirus infected Sf9 cells using histone mixture (H2A and H2B) and biotinylated NAD+ as substrate in presence of activated DNA incubated for 60 mins by chemiluminescence assay
Chain of Poly [ADP-ribose] polymerase 2 (Q9UGN5 whole entry, the tested form may be a part): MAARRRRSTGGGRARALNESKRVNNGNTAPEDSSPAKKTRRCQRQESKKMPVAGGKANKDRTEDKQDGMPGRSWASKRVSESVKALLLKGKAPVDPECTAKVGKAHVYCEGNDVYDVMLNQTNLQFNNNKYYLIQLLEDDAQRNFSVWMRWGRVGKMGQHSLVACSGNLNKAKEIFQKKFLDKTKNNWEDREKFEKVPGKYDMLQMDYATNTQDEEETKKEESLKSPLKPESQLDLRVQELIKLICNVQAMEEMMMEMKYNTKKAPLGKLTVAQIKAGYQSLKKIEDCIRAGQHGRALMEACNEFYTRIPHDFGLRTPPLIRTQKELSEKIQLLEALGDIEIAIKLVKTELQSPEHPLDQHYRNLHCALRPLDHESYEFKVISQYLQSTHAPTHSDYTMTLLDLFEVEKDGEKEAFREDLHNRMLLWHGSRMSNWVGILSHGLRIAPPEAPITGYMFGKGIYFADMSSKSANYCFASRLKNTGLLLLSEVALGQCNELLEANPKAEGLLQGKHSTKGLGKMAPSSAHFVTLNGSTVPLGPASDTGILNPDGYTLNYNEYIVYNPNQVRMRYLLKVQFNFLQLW

[2] = Clearance in BALB/c mouse at 1 mg/kg, iv measured up to 24 hrs by LC-MS/MS analysis; type: ADME, organism-based; conditions: in vivo
[3] = Half life in BALB/c mouse at 1 mg/kg, iv measured up to 24 hrs by LC-MS/MS analysis; type: ADME, organism-based; conditions: in vivo
[4] = target: CYP3A4 (Homo sapiens, UniProt P08684); test: Inhibition of CYP3A4 (unknown origin) at 10 uM relative to control; type: ADME
Chain of CYP3A4 (P08684 whole entry): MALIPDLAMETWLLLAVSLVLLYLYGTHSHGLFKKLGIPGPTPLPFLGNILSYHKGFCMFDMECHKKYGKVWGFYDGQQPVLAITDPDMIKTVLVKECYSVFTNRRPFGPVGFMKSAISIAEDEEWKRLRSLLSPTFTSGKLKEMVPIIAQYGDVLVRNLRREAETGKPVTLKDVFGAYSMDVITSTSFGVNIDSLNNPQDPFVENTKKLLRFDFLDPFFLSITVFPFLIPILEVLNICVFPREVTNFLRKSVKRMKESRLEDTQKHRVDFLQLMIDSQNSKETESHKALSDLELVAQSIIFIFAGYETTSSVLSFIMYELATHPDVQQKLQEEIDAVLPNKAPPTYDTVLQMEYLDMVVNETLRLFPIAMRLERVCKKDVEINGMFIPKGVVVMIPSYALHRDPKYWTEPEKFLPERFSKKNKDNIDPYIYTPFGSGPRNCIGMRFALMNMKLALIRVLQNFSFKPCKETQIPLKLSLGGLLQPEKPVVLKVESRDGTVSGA

[5] = Metabolic stability of the compound in human plasma measured up to 4 hrs; type: ADME, cell-free; conditions: read-out: Stabilty
[6] = Metabolic stability of the compound in dog plasma measured up to 4 hrs; type: ADME, cell-free, Canis lupus familiaris; conditions: read-out: Stabilty
[7] = target: Poly [ADP-ribose] polymerase tankyrase-1 (Homo sapiens, UniProt O95271); test: Inhibition of TNKS1 (unknown origin)
Chain of Poly [ADP-ribose] polymerase tankyrase-1 (O95271 whole entry): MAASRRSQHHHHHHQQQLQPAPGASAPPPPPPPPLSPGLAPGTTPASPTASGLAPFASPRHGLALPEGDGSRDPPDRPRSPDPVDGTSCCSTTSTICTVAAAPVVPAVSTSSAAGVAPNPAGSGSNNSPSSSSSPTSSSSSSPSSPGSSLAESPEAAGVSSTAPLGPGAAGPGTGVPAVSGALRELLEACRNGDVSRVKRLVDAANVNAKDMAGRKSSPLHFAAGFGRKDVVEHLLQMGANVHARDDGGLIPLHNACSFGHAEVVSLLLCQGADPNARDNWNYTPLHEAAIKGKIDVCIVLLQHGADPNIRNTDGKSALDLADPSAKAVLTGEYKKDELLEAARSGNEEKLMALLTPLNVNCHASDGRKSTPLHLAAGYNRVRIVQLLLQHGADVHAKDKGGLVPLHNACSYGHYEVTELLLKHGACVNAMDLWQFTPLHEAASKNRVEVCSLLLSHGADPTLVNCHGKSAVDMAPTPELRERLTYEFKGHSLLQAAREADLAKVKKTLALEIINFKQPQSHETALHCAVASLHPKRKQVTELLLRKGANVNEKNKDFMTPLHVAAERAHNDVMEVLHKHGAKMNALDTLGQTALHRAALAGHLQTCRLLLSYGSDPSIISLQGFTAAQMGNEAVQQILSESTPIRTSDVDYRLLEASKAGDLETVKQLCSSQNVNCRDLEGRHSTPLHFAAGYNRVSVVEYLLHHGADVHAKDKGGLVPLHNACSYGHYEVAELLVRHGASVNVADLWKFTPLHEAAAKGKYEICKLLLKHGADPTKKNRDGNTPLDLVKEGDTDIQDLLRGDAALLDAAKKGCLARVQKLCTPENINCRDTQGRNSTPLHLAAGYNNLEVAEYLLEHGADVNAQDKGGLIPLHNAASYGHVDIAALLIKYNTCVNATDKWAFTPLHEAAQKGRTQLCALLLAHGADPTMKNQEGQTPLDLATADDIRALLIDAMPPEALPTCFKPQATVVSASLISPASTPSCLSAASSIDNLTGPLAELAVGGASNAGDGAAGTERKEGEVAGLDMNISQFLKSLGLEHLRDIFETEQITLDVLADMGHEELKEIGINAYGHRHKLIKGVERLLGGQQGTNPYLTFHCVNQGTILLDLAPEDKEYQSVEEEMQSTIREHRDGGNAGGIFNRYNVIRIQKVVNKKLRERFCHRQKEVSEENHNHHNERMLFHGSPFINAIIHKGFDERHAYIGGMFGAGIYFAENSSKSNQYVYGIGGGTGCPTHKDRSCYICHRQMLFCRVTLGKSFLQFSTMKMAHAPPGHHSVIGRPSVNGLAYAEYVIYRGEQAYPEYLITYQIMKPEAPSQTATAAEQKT

[8] = tested on: MDA-MB-436; test: Anticancer activity against human MDA-MB-436 cells harboring BRCA mutant xenografted in SCID/nude mouse assessed as tumor growth regression at 0.15 mg/kg, po bid and measured up to 5 weeks post-drug administration; type: functional; conditions: MDA-MB-436, po, 840 h, time weeks <=5
[9] = tested on: CAPAN-1; test: Potentiation of anticancer activity against human CAPAN-1 cells harboring BRCA mutant xenografted in SCID/nude mouse assessed as tumor growth inhibition at 0.15 mg/kg, po bid for 12 days co-administered with TMZ measured up to 9 weeks post-drug administration; type: functional; conditions: CAPAN-1, po, 288 h, time 12 day
[10] = target: CYP2D6 (Homo sapiens, UniProt P10635); test: Inhibition of CYP2D6 (unknown origin) at 10 uM relative to control; type: ADME
Chain of CYP2D6 (P10635 whole entry): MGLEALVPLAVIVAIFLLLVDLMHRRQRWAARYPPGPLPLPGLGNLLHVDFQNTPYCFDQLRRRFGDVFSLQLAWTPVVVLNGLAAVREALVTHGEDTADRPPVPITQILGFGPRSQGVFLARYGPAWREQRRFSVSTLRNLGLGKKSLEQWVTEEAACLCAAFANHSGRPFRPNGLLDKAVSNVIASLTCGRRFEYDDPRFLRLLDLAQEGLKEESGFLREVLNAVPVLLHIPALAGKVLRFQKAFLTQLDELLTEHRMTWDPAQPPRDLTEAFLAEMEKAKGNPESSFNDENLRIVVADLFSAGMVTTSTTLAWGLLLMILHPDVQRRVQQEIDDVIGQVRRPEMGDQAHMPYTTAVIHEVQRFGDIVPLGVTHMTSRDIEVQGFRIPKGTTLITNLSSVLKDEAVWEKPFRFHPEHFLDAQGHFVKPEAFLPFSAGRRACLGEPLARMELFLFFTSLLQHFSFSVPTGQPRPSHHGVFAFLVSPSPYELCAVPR

[11] = tested on: MDA-MB-436; test: Cytotoxicity against human MDA-MB-436 cells assessed as inhibition of cell viability incubated for 14 days with three intermittent intervals by CellTiterGlo luminescence assay; conditions: MDA-MB-436, 336 h
[12] = Cmax in BALB/c mouse at 10 mg/kg, po measured up to 24 hrs by LC-MS/MS analysis; type: ADME, organism-based; parameters: route oral, dose 10 mg/kg, time <=24; conditions: in vivo
[13] = target: CYP2C19 (Homo sapiens, UniProt P33261); test: Inhibition of CYP2C19 (unknown origin) at 10 uM relative to control; type: ADME
Chain of CYP2C19 (P33261 whole entry): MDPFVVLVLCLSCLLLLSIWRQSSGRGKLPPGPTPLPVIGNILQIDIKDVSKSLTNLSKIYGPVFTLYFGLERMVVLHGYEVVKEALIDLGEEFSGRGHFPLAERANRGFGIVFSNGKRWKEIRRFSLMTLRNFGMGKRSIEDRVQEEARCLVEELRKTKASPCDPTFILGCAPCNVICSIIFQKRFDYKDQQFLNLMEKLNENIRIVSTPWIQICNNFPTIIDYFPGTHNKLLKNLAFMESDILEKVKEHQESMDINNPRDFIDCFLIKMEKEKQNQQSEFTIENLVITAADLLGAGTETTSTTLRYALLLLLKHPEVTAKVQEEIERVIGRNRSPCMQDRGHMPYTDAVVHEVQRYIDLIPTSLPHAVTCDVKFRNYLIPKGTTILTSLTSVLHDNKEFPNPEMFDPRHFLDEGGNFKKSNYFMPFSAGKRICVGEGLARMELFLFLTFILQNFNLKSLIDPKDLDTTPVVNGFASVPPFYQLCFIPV

[14] = Toxicity in rat assessed as NOAEL; conditions: in vivo
[15] = target: Protein mono-ADP-ribosyltransferase PARP3 (Homo sapiens, UniProt Q9Y6F1); test: Inhibition of PARP3 (unknown origin)
Chain of Protein mono-ADP-ribosyltransferase PARP3 (Q9Y6F1 whole entry): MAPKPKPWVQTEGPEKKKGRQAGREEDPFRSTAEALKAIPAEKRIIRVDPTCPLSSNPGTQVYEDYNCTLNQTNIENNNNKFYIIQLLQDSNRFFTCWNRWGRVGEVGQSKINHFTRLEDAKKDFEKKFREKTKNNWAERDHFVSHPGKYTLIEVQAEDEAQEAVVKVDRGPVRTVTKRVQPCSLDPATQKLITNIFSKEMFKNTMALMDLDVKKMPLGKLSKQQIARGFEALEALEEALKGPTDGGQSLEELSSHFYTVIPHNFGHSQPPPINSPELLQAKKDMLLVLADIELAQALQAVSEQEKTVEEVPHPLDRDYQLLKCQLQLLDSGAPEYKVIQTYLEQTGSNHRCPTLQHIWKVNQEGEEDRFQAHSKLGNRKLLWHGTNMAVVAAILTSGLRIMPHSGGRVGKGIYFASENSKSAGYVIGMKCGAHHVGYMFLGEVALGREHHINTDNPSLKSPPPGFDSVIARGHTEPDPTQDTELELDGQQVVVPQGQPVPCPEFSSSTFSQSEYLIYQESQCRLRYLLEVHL

[16] = Protein binding in dog plasma; type: ADME, cell-free, Canis lupus familiaris; conditions: read-out: PPB (converted)
[17] = tested on: CAPAN-1; test: Antitumor activity against human CAPAN1 cells xenografted in SCID/nude mouse assessed as tumor growth inhibition at 0.3 mg/kg, po bid measured up to 5 weeks post drug administration; type: functional; conditions: CAPAN-1, po, 840 h, time weeks <=5
[18] = tested on: MDA-MB-436; test: Potentiation of anticancer activity against human MDA-MB-436 cells harboring BRCA mutant xenografted in SCID/nude mouse assessed as tumor growth inhibition at 0.15 mg/kg, po bid for 12 days co-administered with […] measured up to 9 weeks post drug administration; type: functional; conditions: MDA-MB-436, po, time weeks <=9

IC50 [1]: 8.1 nM
clearance [2]: 0.4 mL/min/kg
half-life [3]: 5.1 h
inhibition at 10 µM [4]: ≤ 23%
remaining at 4 h [5]: 80%
remaining at 4 h [6]: 80%
IC50 [7]: 769 nM
inhibition at 10 µM [10]: ≤ 23%
Cmax [12]: 31 µM
inhibition at 10 µM [13]: ≤ 23%
IC50 [15]: 8000 nM
fraction unbound [16]: 0.125
Structure (SMILES): N#Cc1ccc(N2CCN([C@H]3C=C(c4cc5ncccc5c(=O)[nH]4)CC3)CC2)cc1
inhibition in vivo at 0.15 mg/kg [8]: 79%
inhibition in vivo at 0.15 mg/kg [9]: 88%
IC50 [11]: 0.0008 nM
NOAEL [14]: 15 mg/kg/day
inhibition in vivo at 0.3 mg/kg [17]: 49.6%
inhibition in vivo at 0.15 mg/kg [18]: > 90%
